Test results reported in US20080090863A1, “Pyridine Derivatives and Their Use as Medicaments for Treating Diseases Related to Mch Receptor” (TAISHO PHARMACEUTICAL CO., LTD., priority 2004, published 2008).
pIC50: −log10 of the molar value. Where a name gives a salt, the structure may show the parent alone.

These compounds were tested against MCH receptor (Homo sapiens, UniProt Q99705) (assay: High Throughput Functional Screening: FLIPR/FDSS6000 intracellular Ca2+ assay, antagonist activity against MCH). Settings: FLIPR/FDSS, [Ca2+]i evoked by 50 nM MCH, non-endogenous constitutively active MCH receptor; read-out: IC50.
Format: cell-based
Set-up: class (percent of control at 10^−7 M or IC50): scale not given here
From the text: Subsequently, a functional based assay was used to confirm the lead hits, referred to as FLIPR™ (the Fluorometric Imaging Plate Reader) and FDSS6000™ (Functional Drug Screening System). This assay utilized a non-endogenous, constitutively active version of the MCH receptor.
The FLIPR and FDSS assays are able to detect intracellular Ca^2+ concentration in cells, which can be utilized to assess receptor activation and determine whether a candidate compound is an, for example, antagonist, inverse agonist or agonist to a Gq-coupled receptor. The concentration of free Ca^2+ in the cytosol of any cell is extremely low, whereas its concentration in the extracellular fluid and endoplasmic reticulum (ER) is very high. Thus, there is a large gradient tending to drive Ca^2+ into the cytosol across both the plasma membrane and ER. The FLIPR™ and FDSS6000™ systems (Molecular Devices Corporation, HAMAMATSU Photonics K.K.) are designed to perform functional cell-based assays, such as the measurement of intracellular calcium for high-throughput screening. The measurement of fluorescent is associated with calcium release upon activation of the Gq-coupled receptors.
Fluorometric Imaging Plate Reader system was used to allow for rapid, kinetic measurements of intracellular fluorescence in 96 well microplates (or 384 well microplates). Simultaneous measurements of fluorescence in all wells can be made by FLIPR or FDSS6000™ every second with high sensitivity and precision. These systems are ideal for measuring cell-based functional assays such as monitoring the intracellular calcium fluxes that occur within seconds after activation of the Gq coupled receptor.
Briefly, the cells are seeded into 96 well at 5.5×10^4 cells/well with complete culture media (Dulbecco's Modified Eagle Medium with 10% fetal bovine serum, 2 mM L-glutamine, 1 mM sodium pyruvate and 0.5 mg/mL G418, pH 7.4) for the assay next day. On the day of assay, the media is removed and the cells are incubated with 100 μl of loading buffer (4 μM Fluo4-AM in complete culture media containing 2.5 mM Probenicid, 0.5 mg/ml and 0.2% bovine serum albumin) in 5% CO2 incubator at 37° C. for 1 hr. The loading buffer is removed, and the cells are washed with wash buffer (Hank's Balanced Salt Solution containing 2.5 mM Probenicid, 20 mM HEPES, 0.5 mg/mL and 0.2% bovine serum albumin, pH 7.4). One hundred fifty μl of wash buffer containing various concentrations of test compound is added to the cells, and the cells are incubated in 5% CO2 incubator at 37° C. for 30 min. Fifty μl of wash buffer containing various concentration of MCH are added to each well, and transient changes in [Ca^2+]i evoked by MCH are monitored using the FLIPR™ or FDSS in 96 well plates at Ex. 488 nm and Em. 530 nm for 290 second. When antagonist activity of compound is tested, 50 nM of MCH is used.
Use of FLIPR™ and FDSS6000™ can be accomplished by following manufacturer's instruction (Molecular Device Corporation and HAMAMATSU Photonics K.K.).
Compound `Cc1cnc(N[C@H]2CC[C@@H](NC(=O)c3cc(F)c(F)c(F)c3)CC2)cc1N(C)C` [Example 5, N-(cis-4-{[4-(Dimethylamino)-5-methylpyridin-2-yl]amino}cyclohexyl)-3,4,5-trifluorobenzamide hydrochloride] has a pIC50 of 8.72.
Work on `Cc1cnc(N[C@H]2CC[C@@H](NC(=O)c3ccc(F)c(Cl)c3)CC2)cc1N(C)C` [Example 4, 3-Chloro-N-(cis-4-{[4-(dimethylamino)-5-methylpyridin-2-yl]amino}cyclohexyl)-4-fluorobenzamide hydrochloride] yielded a pIC50 of 9.00.

Same assay, conditions: FLIPR/FDSS, [Ca2+]i evoked by 50 nM MCH; class by percent of control at 10^−7 M or IC50
For `Cc1cnc(N[C@H]2CC[C@@H](NC(=O)c3cc(F)c(F)c(F)c3)CC2)cc1N.Cl` [Example 18, N-{cis-4-[(4-Amino-5-methylpyridin-2-yl)amino]cyclohexyl}-3,4,5-trifluorobenzamide hydrochloride], the “class (percent of control at 10^−7 M or IC50)” value was 2.
For `Cc1cnc(N[C@H]2CC[C@@H](NC(=O)Nc3ccc(F)c(Cl)c3)CC2)cc1N(C)C.Cl` [Example 25, N-(3-Chloro-4-fluorophenyl)-N′-(cis-4-{[4-(dimethylamino)-5-methylpyridin-2-yl]amino}cyclohexyl)urea hydrochloride], the “class (percent of control at 10^−7 M or IC50)” value was 2.
For `Cc1cnc(N[C@H]2CC[C@@H](NC(=O)Oc3ccc(Br)cc3)CC2)cc1N(C)C` [Example 27, 4-Bromophenyl (cis-4-{[4-(dimethylamino)-5-methylpyridin-2-yl]amino}cyclohexyl)carbamate], the “class (percent of control at 10^−7 M or IC50)” value was 2.
`CCCN(CCC)S(=O)(=O)c1ccc(C(=O)N[C@H]2CC[C@@H](Nc3cc(N(C)C)cc(C)n3)CC2)cc1` [Example 166, N-(cis-4-{[4-(dimethylamino)-6-methylpyridin-2-yl]amino}cyclohexyl)-4-[(dipropylamino)sulfonyl]benzamide] was tested, and the “class (percent of control at 10^−7 M or IC50)” value was 2.
With `Cc1cccc(N[C@H]2CC[C@@H](NC(=O)c3ccc(F)c(Cl)c3)CC2)n1.Cl` [Example 3, 3-Chloro-4-fluoro-N-{cis-4-[(6-methylpyridin-2-yl)amino]cyclohexyl}benzamide hydrochloride] the “class (percent of control at 10^−7 M or IC50)” value was 2.
In the case of `Cc1cnc(N[C@H]2CC[C@@H](NC(=O)c3ccc(F)c(Cl)c3)CC2)cc1N1CCCC1.Cl` [Example 20, 3-Chloro-4-fluoro-N-{cis-4-[(5-methyl-4-pyrrolidin-1-ylpyridin-2-yl)amino]cyclohexyl}-benzamide hydrochloride], the “class (percent of control at 10^−7 M or IC50)” value was 2.
`Cc1cc(N(C)C)cc(N[C@H]2CC[C@@H](NC(=O)c3cccnc3Oc3ccccc3)CC2)n1` [Example 203, N-(cis-4-{[4-(dimethylamino)-6-methylpyridin-2-yl]amino}cyclohexyl)-2-phenoxynicotinamide] was tested, and the “class (percent of control at 10^−7 M or IC50)” value was 2.
`Cc1cc(N(C)C)cc(N[C@H]2CC[C@@H](NCCOc3ccc(Cl)cc3)CC2)n1` [Example 209, N-(cis-4-{[2-(4-chlorophenoxy)ethyl]amino}cyclohexyl)-N,N-6-trimethylpyridine-2,4-diamine] was tested, and the “class (percent of control at 10^−7 M or IC50)” value was 2.

Same assay, conditions: FLIPR/FDSS, [Ca2+]i evoked by 50 nM MCH; class by percent of control at 10^−7 M or IC50; read-out: class (percent of control at 10^−7 M or IC50)
`CNc1cc(N[C@H]2CC[C@@H](NC(=O)c3ccc(F)c(Cl)c3)CC2)ncc1C` [Example 15, 3-Chloro-4-fluoro-N-(cis-4-{[5-methyl-4-(methylamino)pyridin-2-yl]amino}cyclohexyl)-benzamide hydrochloride] showed a pIC50 greater than 7.30.
`COc1ccc(Oc2ccc([N+](=O)[O-])cc2C(=O)N[C@H]2CC[C@@H](Nc3cc(N(C)C)cc(C)n3)CC2)cc1` [Example 192, N-(cis-4-{[4-(dimethylamino)-6-methylpyridin-2-yl]amino}cyclohexyl)-2-(4-methoxyphenoxy)-5-nitrobenzamide] was tested, and the pIC50 was greater than 7.30.
For `CN(C)c1ccnc(N[C@H]2CC[C@@H](NC(=O)c3cc(F)c(F)c(F)c3)CC2)c1` [Example 37, N-(cis-4-{[4-(Dimethylamino)pyridin-2-yl]amino}cyclohexyl)-3,4,5-trifluorobenzamide hydrochloride], the pIC50 was greater than 7.30.
`Cc1cnc(N[C@H]2CC[C@@H](NC(=O)c3cc(F)c(F)c(F)c3)CC2)cc1N(C)C` [Example 5, N-(cis-4-{[4-(Dimethylamino)-5-methylpyridin-2-yl]amino}cyclohexyl)-3,4,5-trifluorobenzamide hydrochloride] gave a pIC50 greater than 7.30.
With `Cc1cc(N(C)C)cc(N[C@H]2CC[C@@H](NC(=O)c3ccc(F)c(Cl)c3)CC2)n1` [Example 28, 3-Chloro-N-(cis-4-{[4-(dimethylamino)-6-methylpyridin-2-yl]amino}cyclohexyl)-4-fluorobenzamide hydrochloride] the pIC50 was greater than 7.30.
For `CN(C)c1ccnc(N[C@H]2CC[C@@H](NC(=O)c3ccc(F)c(Cl)c3)CC2)c1` [Example 36, 3-Chloro-N-(cis-4-{[4-(dimethylamino)pyridin-2-yl]amino}cyclohexyl)-4-fluorobenzamide hydrochloride], the pIC50 was greater than 7.30.
For `Cc1cnc(N[C@H]2CC[C@@H](NC(=O)c3ccc(F)c(C(F)(F)F)c3)CC2)cc1N(C)C` [Example 13, N-(cis-4-{[4-(Dimethylamino)-5-methylpyridin-2-yl]amino}cyclohexyl)-4-fluoro-3-(trifluoromethyl)benzamide hydrochloride], the pIC50 was greater than 7.30.
With `Cc1cc(N(C)C)cc(N[C@H]2CC[C@@H](NC(=O)c3ccc4nonc4c3)CC2)n1` [Example 146, N-(cis-4-{[4-(dimethylamino)-6-methylpyridin-2-yl]amino}cyclohexyl)-2,1,3-benzoxadiazole-5-carboxamide] the pIC50 was greater than 7.30.
With `CNc1cc(N[C@H]2CC[C@@H](NC(=O)c3cc(F)c(F)c(F)c3)CC2)ncc1C` [Example 16, 3,4,5-Trifluoro-N-(cis-4-{[5-methyl-4-(methylamino)pyridin-2-yl]amino}cyclohexyl)-benzamide hydrochloride] the pIC50 was greater than 7.30.
Compound `Cc1cnc(N[C@H]2CC[C@@H](NC(=O)c3ccc(F)c(F)c3)CC2)cc1N(C)C` [Example 8, N-(cis-4-{[4-(Dimethylamino)-5-methylpyridin-2-yl]amino}cyclohexyl)-3,4-difluorobenzamide hydrochloride] has a pIC50 greater than 7.30.
`Cc1cnc(N[C@H]2CC[C@@H](NC(=O)c3cncc(Br)c3)CC2)cc1N(C)C` [Example 11, 5-Bromo-N-(cis-4-{[4-(dimethylamino)-5-methylpyridin-2-yl]amino}cyclohexyl)nicotinamide dihydrochloride] gave a pIC50 greater than 7.30.
`Cc1cc(C)nc(N[C@H]2CC[C@@H](NC(=O)c3ccc(F)c(Cl)c3)CC2)c1` [Example 52, 3-Chloro-N-{cis-4-[(4,6-dimethylpyridin-2-yl)amino]cyclohexyl}-4-fluorobenzamide hydrochloride] was tested, and the pIC50 was greater than 7.30.
In the case of `O=C(N[C@H]1CC[C@@H](Nc2ccc3c(n2)CCCC3)CC1)c1cc(F)c(F)c(F)c1` [Example 40, 3,4,5-Trifluoro-N-[cis-4-(5,6,7,8-tetrahydroquinolin-2-ylamino)cyclohexyl]benzamide hydrochloride], the pIC50 was greater than 7.30.
`Cc1cnc(N[C@H]2CC[C@@H](NC(=O)c3cc(F)cc(Cl)c3)CC2)cc1N(C)C` [Example 6, 3-Chloro-N-(cis-4-{[4-(dimethylamino)-5-methylpyridin-2-yl]amino}cyclohexyl)-5-fluorobenzamide hydrochloride] gave a pIC50 greater than 7.30.
`Cc1cnc(N[C@H]2CC[C@@H](NC(=O)c3ccc(Cl)c(Cl)c3)CC2)cc1N(C)C` [Example 9, 3,4-Dichloro-N-(cis-4-{[4-(Dimethylamino)-5-methylpyridin-2-yl]amino}cyclohexyl)benzamide hydrochloride] gave a pIC50 greater than 7.30.
Work on `Cc1cnc(N[C@H]2CC[C@@H](NC(=O)c3ccc(F)c(Cl)c3)CC2)cc1C` [Example 51, 3-Chloro-N-{cis-4-[(4,5-dimethylpyridin-2-yl)amino]cyclohexyl}-4-fluorobenzamide hydrochloride] yielded a pIC50 greater than 7.30.
For `Cc1cnc(N[C@H]2CC[C@@H](NC(=O)c3ccc(F)c(Cl)c3)CC2)cc1N(C)C` [Example 4, 3-Chloro-N-(cis-4-{[4-(dimethylamino)-5-methylpyridin-2-yl]amino}cyclohexyl)-4-fluorobenzamide hydrochloride], the pIC50 was greater than 7.30.
For `Cc1cc(N[C@H]2CC[C@@H](NC(=O)c3ccc(F)c(Cl)c3)CC2)nc2c1CCCC2` [Example 34, 3-Chloro-4-fluoro-N-{cis-4-[(4-methyl-5,6,7,8-tetrahydroquinolin-2-yl)amino]cyclohexyl}benzamide hydrochloride], the pIC50 was greater than 7.30.
